Here are results for 14 molecules from US20240245691A1 (Sitryx Therapeutics Limited, priority 2021, published 2024).

Where two headings read alike, the source gives them in different places.

By IC50 is commonly meant the concentration that gives 50% inhibition. What is called Emax is the size of the effect at its maximum, as opposed to the concentration needed. Broadly, the EC50 is the concentration that produces a half-maximal response. One may read the half-life as the time in which the quantity being followed falls by half.

One series has as its system IL-1β. Put plainly: THP-1 AlphaLISA IL-1β cytokine assay (differentiated THP-1 cells). The class given is cell-based. The following applies: Homo sapiens. The essentials:
(§1)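 PMA-differentiated THP-1 cells were preincubated 30 min with compound, stimulated with LPS for 24 h, then nigericin for 1 h, all at 37 °C. Supernatant IL-1β and IL-6 were quantified by AlphaLISA. % inhibition is normalised to +LPS and −LPS controls per cytokine.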

A further series deals with IL-6. Put plainly: THP-1 AlphaLISA IL-6 cytokine assay (differentiated THP-1 cells). The class given is cell-based. The following applies: Homo sapiens. An outline of the steps: as §1
A general note: Bead proximity is the source of the signal in Alpha formats.

The test system of series [1] is NRF2 (nuclear factor erythroid 2-related factor 2). Put plainly: NRF2 +/-GSH activation assay (DiscoverX PathHunter NRF2 translocation kit, U2OS cells). Format: cell-based. The following applies: Homo sapiens.
The nature of series [2]: Hepatocyte stability assay, human. The class given is in vitro ADME. To be noted: human, hepatocytes, T½. The essentials: (§2)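 Cryopreserved hepatocytes at 0.5×10^6 cells/mL in Leibovitz buffer, 37 °C, with 10 μM compound (0.1% DMSO), duplicate. Samples at 0-60 min, acetonitrile quench, LC-MS/MS; intrinsic clearance and half-life from ln % remaining versus time, with buffer-only incubations as control.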

In series [3] the test system is cryo-preserved hepatocytes. Put plainly: Hepatocyte stability assay, human. Format: in vitro ADME. To be noted: human, hepatocytes. An outline of the steps:
as §2

Series [4] can be described thus: Hepatocyte stability assay, mouse. Format: in vitro ADME. The following applies: mouse, hepatocytes, T½. An outline of the steps:
as §2

For series [5], the system named is cryo-preserved hepatocytes. Put plainly: Hepatocyte stability assay, mouse. The class given is in vitro ADME. The following applies: mouse, hepatocytes. The essentials:
as §2

Where [6] appears, read: THP-1, differentiated THP-1 cells, LPS 24 hr then Nigericin 1 hour, read-out: IL-1β (IC50).
Where [7] appears, read: THP-1, differentiated THP-1 cells, LPS 24 hr then Nigericin 1 hour, read-out: IL-6 (IC50).
Setting [8] is: U2OS, +GSH, normalised to dimethyl fumarate high control, read-out: NRF2 activation Emax, +GSH.
Setting [9] is: U2OS, −GSH, normalised to dimethyl fumarate high control, read-out: NRF2 activation Emax, −GSH.
Setting [10] is: +GSH, U2OS PathHunter cells, 6 hours, read-out: NRF2 activation EC50, +GSH.
The mark [11] stands for this setting: −GSH, U2OS PathHunter cells, 6 hours, read-out: NRF2 activation EC50, −GSH.

In the case of `C=C(CC(=O)NC1(c2ccc(C(F)(F)F)cc2)CCC1)C(=O)O` [Example 5, 2-methylene-4-oxo-4-((1-(4-(trifluoromethyl)phenyl)cyclobutyl)amino)butanoic acid], the IC50 is 3.7 µM with IL-1β (setting [6]); 5.6 µM in the series on IL-1β (THP-1, differentiated THP-1 cells, footnote a: data from repeated experiments, read-out: IL-1β (IC50), data from repeated experiments); greater than 56.2 µM in the series on IL-6 (setting [7]). Besides, the figures for the Emax in series [1] (setting [8]) and in series [1] (setting [9]) were 0% and 17%, respectively. Further, the EC50 in series [1] (setting [10]) and in series [1] (setting [11]) was greater than 100 µM throughout. Besides, the values for the half-life at 10 μM in series [2] and in series [4] were greater than 460 min and 450 min, respectively. Moreover, the Clint is reported as less than 3 μL min^−1 10^−6 cells in series [3] and 3 μL min^−1 10^−6 cells in series [5].

Regarding `C=C(CC(=O)NC1(c2ccc(C(F)(F)F)cc2)CCC1)C(=O)OC1CCN(S(C)(=O)=O)CC1` [Example 9, 1-(methylsulfonyl)piperidin-4-yl 2-methylene-4-oxo-4-((1-(4-(trifluoromethyl)phenyl)cyclobutyl)amino)butanoate], the IC50 in the series with IL-1β (setting [6]) stood at 8.2 µM; in the series on IL-6 (setting [7]), 7.27 µM. Moreover, the maximum response (Emax) in series [1] (setting [8]) came to 55%; in series [1] (setting [9]), 109%. Also, the EC50 in series [1] (setting [10]) is greater than 100 µM; in series [1] (setting [11]) it was 19.2 µM. The half-life at 10 μM stood at 10 min in series [2] and 3.5 min in series [4]. Besides, the values for the Clint in series [3] and in series [5] were 116 μL min^−1 10^−6 cells and 619 μL min^−1 10^−6 cells, respectively.

On to `C=C(CC(=O)N[C@@H](C)c1ccc(C(F)(F)F)cc1)C(=O)OC1CCN(S(C)(=O)=O)CC1` [Example 22, 1-(methylsulfonyl)piperidin-4-yl (S)-2-methylene-4-oxo-4-((1-(4-(trifluoromethyl)phenyl)ethyl)amino)butanoate], for which the IC50 in the series on IL-1β (setting [6]) is 7.1 µM; with IL-6 (setting [7]) it was 3.6 µM. Also, the Emax in series [1] (setting [8]) is 8%; in series [1] (setting [9]), 3%. The EC50 in series [1] (setting [10]) and in series [1] (setting [11]) was greater than 100 µM in each case. In addition, the half-life at 10 μM in series [2] came to 37 min; in series [4], 13 min. The Clint in series [3] is 49 μL min^−1 10^−6 cells; in series [5] it was 99 μL min^−1 10^−6 cells.

Regarding `C=C(CC(=O)N[C@@H](C)c1ccc(C(F)(F)F)cc1)C(=O)OC1CCN(C)CC1` [Example 24, 1-methylpiperidin-4-yl (S)-2-methylene-4-oxo-4-((1-(4-(trifluoromethyl)phenyl)ethyl)amino)butanoate], the IC50 with IL-1β (setting [6]) stood at 4.7 µM; with IL-6 (setting [7]) it was 4 µM. The Emax in series [1] (setting [8]) was 30%; in series [1] (setting [9]), 78%. Moreover, the EC50 is greater than 100 µM in series [1] (setting [10]) and 9.05 µM in series [1] (setting [11]). Also, the half-life at 10 μM in series [2] was found to be 65 min; in series [4], 8 min. In addition, the values for the Clint in series [3] and in series [5] were 23 μL min^−1 10^−6 cells and 199 μL min^−1 10^−6 cells, respectively.

Turning to `C=C(CC(=O)N[C@@H](C)c1ccc(C(F)(F)F)cc1)C(=O)OC1CS(=O)(=O)C1` [Example 27, 1,1-dioxidothietan-3-yl (S)-2-methylene-4-oxo-4-((1-(4-(trifluoromethyl)phenyl)ethyl)amino)butanoate], the IC50 in the series on IL-1β (setting [6]) turned out to be 3.3 µM; in the series on IL-6 (setting [7]), 1.4 µM. The Emax in series [1] (setting [8]) was 10%; in series [1] (setting [9]), 84%. Moreover, the EC50 in series [1] (setting [10]) was greater than 100 µM; in series [1] (setting [11]), 6.3 µM. Also, the half-life at 10 μM in series [2] came out at 12 min; in series [4], 6 min. Moreover, the Clint is given as 126 μL min^−1 10^−6 cells in series [3] and 215 μL min^−1 10^−6 cells in series [5].

As to `C=C(CC(=O)N[C@@H](C)c1ccc(C(F)(F)F)cc1)C(=O)OCCN1CCOCC1` [Example 29], the IC50 in the series on IL-1β (setting [6]) stood at 10.3 µM; in the series on IL-6 (setting [7]) it was 6.7 µM. Further, the Emax in series [1] (setting [8]) is 22%; in series [1] (setting [9]), 86%. Also, the EC50 in series [1] (setting [10]) was greater than 100 µM; in series [1] (setting [11]) it was 22.7 µM. For the same molecule, the half-life at 10 μM in series [2] was found to be 38 min; in series [4], 13 min. Moreover, the Clint in series [3] is listed as 39 μL min^−1 10^−6 cells; in series [5] it was 130 μL min^−1 10^−6 cells.

Regarding `C=C(CC(=O)N[C@@H](C)c1ccc(C(F)(F)F)cn1)C(=O)OC1CCN(S(C)(=O)=O)CC1` [Example 31, 1-(methylsulfonyl)piperidin-4-yl (S)-2-methylene-4-oxo-4-((1-(5-(trifluoromethyl)pyridin-2-yl)ethyl)amino)butanoate], the IC50 came out at 2.4 µM in the series on IL-1β (THP-1, read-out: IL-1β (IC50)) and 13.3 µM in the series on IL-6 (THP-1, read-out: IL-6 (IC50)). In addition, the EC50 in series [1] (U2OS, 6 h, read-out: NRF2 activation EC50, +GSH) was greater than 100 µM; in series [1] (U2OS, 6 h, read-out: NRF2 activation EC50, −GSH) it was 43.3 µM. Further, the Emax was determined as 27% in series [1] (U2OS, read-out: NRF2 activation Emax, +GSH) and 82% in series [1] (U2OS, read-out: NRF2 activation Emax, −GSH). Also, the half-life at 10 μM in series [2] was 138 min; in series [4] it was 35 min. Besides, the values for the Clint in series [3] and in series [5] were 11 μL min^−1 10^−6 cells and 34 μL min^−1 10^−6 cells, respectively.

As for `C/C=C(/CC(=O)N[C@@H](C)c1ccc(C(F)(F)F)cc1)C(=O)O` [Example 41, (S,Z)-2-(2-oxo-2-((1-(4-(trifluoromethyl)phenyl)ethyl)amino)ethyl)but-2-enoic acid], the concentration for half-maximal inhibition (IC50) in the series with IL-1β (THP-1, read-out: IL-1β (IC50)) is 24.3 µM; with IL-6 (THP-1, read-out: IL-6 (IC50)) it was greater than 31.6 µM. The half-life at 10 μM in series [2] and in series [4] was greater than 460 min throughout. In addition, the Clint in series [3] and in series [5] was less than 3 μL min^−1 10^−6 cells throughout.

`CC(C)C/C=C(\CC(=O)N[C@@H](C)c1ccc(C(F)(F)F)cc1)C(=O)O` [Example 45, (S,E)-5-methyl-2-(2-oxo-2-((1-(4-(trifluoromethyl)phenyl)ethyl)amino)ethyl)hex-2-enoic acid]: the IC50 in the series with IL-1β (setting [6]) is 2.1 µM; in the series with IL-6 (setting [7]), greater than 31.6 µM. Besides, the half-life at 10 μM in series [2] came out at 230 min; in series [4], 47.6 min. The Clint worked out at 8 μL min^−1 10^−6 cells in series [3] and 30 μL min^−1 10^−6 cells in series [5].

As for `C[C@H](NC(=O)C/C(=C\c1ccccc1)C(=O)O)c1ccc(C(F)(F)F)cc1` [Example 47, (S,E)-2-benzylidene-4-oxo-4-((1-(4-(trifluoromethyl)phenyl)ethyl)amino)butanoic acid], the 50% inhibitory concentration (IC50) in the series with IL-1β (setting [6]) and in the series on IL-6 (setting [7]) was greater than 100 µM in each case. Further, the values for the half-life at 10 μM in series [2] and in series [4] were greater than 460 min and 132 min, respectively. The Clint is reported as less than 3 μL min^−1 10^−6 cells in series [3] and 12 μL min^−1 10^−6 cells in series [5].

Take `C[C@H](NC(=O)C/C(=C/c1ccccc1)C(=O)O)c1ccc(C(F)(F)F)cc1` [Example 48, (S,Z)-2-benzylidene-4-oxo-4-((1-(4-(trifluoromethyl)phenyl)ethyl)amino)butanoic acid]: the IC50 was 2.3 µM with IL-1β (setting [6]) and greater than 100 µM with IL-6 (setting [7]). Besides, the half-life at 10 μM came to 224 min in series [2] and 16 min in series [4]. In addition, the Clint in series [3] is given as 7 μL min^−1 10^−6 cells; in series [5], 95 μL min^−1 10^−6 cells.

On to `C[C@H](NC(=O)C/C(=C\CN(C)C)C(=O)O)c1ccc(C(F)(F)F)cc1` [Example 49, (S,E)-4-(dimethylamino)-2-(2-oxo-2-((1-(4-(trifluoromethyl)phenyl)ethyl)amino)ethyl)but-2-enoic acid], for which the IC50 is 16.5 µM in the series on IL-1β (THP-1, read-out: IL-1β (IC50)) and greater than 100 µM with IL-6 (THP-1, read-out: IL-6 (IC50)). The half-life at 10 μM in series [2] and in series [4] was greater than 460 min in each case. In addition, the Clint in series [3] and in series [5] was less than 3 μL min^−1 10^−6 cells in each case.

For `C=C(C(=O)O)C(C)(C)C(=O)N[C@@H](C)c1ccc(C(F)(F)F)cc1` [Example 50, (S)-3,3-dimethyl-2-methylene-4-oxo-4-((1-(4-(trifluoromethyl)phenyl)ethyl)amino)butanoic acid], the 50% inhibitory concentration (IC50) is 1.1 µM with IL-1β (setting [6]) and greater than 100 µM in the series with IL-6 (setting [7]). Further, the half-life at 10 μM is greater than 460 min in series [2] and 104 min in series [4]. The results for the Clint in series [3] and in series [5] were less than 3 μL min^−1 10^−6 cells and 13 μL min^−1 10^−6 cells, respectively.

For the molecule `C=C(CC(=O)N[C@@H](C)c1ccc(S(F)(F)(F)(F)F)cc1)C(=O)O` [Example 56, (S)-2-methylene-4-oxo-4-((1-(4-(pentafluoro-A6-sulfaneyl)phenyl)ethyl)amino)butanoic acid], the values for the concentration for half-maximal inhibition (IC50) with IL-1β (setting [6]) and in the series with IL-6 (setting [7]) were 3.3 µM and greater than 100 µM, respectively. In addition, the half-life at 10 μM in series [2] was greater than 460 min; in series [4], 166 min. The figures for the Clint in series [3] and in series [5] were less than 3 μL min^−1 10^−6 cells and 11 μL min^−1 10^−6 cells, respectively.
